The values below come from patent publication US20020035264A1, “Ophthalmic formulation of a selective cyclooxygenase-2 inhibitory drug” (priority 2000, published 2002).

“Also recorded” adds a separate entry of the source.

A short description of this data set: Ocular versus oral delivery of valdecoxib nanoparticle suspensions; drug concentration in eye tissues and plasma by LC-MS. It is filed as in vivo, New Zealand white rabbits. Conditions: rabbit. As for the experimental part:
Oral and ophthalmic suspensions of valdecoxib nanoparticles were prepared. […] The two carrageenan excipients are both ι-carrageenans with slightly different chemical and physical properties.
Eighteen male New Zealand white rabbits weighing from 1.8-2.5 kg were provided as test animals and divided into three lots containing six rabbits each.
Selected eye tissues, aqueous humor, bulbar conjunctiva, cornea, eyelids, vitreous humor and sclera, were excised at the time of sacrifice, weighed directly into tared vials, solubilized and/or diluted as necessary, and analyzed by HPLC-MS. Just prior to sacrifice, 0.5 mL of a blood sample was collected from the ear central artery via a syringe, placed into a K2-EDTA vacutainer, mixed gently and stored on ice up to one hour prior to centrifuging to separate the plasma. The plasma was stored at −10° C. or colder until analysis.

Setting [1] is: four hours after administration, FIGS. 2 and 3.

As for `Cc1onc(-c2ccccc2)c1-c1ccc(S(N)(=O)=O)cc1` [valdecoxib, 4-[5-methyl-3-phenylisoxazol-4-yl]-benzenesulfonamide], under setting [1], the “delivery of the drug to the eye (conjunctiva, cornea, aqueous humor concentration), ocular versus oral administration” value is “much more effective in delivering the drug to the eye than oral administration” and the “systemic (plasma) concentration of the drug, ocular versus oral administration” value is on record as “avoids the high systemic (plasma) concentration”. Besides, the “concentration of the drug in the conjunctiva versus time, ocular versus oral delivery” value (single ocular dose 25 μL ophthalmic suspension per eye (about 0.1 mg) vs oral 0.5 mg/kg, 0.5, 2 and 4 hours, FIG. 1, 0.5 mg/kg) is recorded as “much higher initial concentration; also recorded: maintained this higher concentration over time”.
